Results from ChEMBL document CHEMBL5131500, “High Plasticity of the Amicetin Biosynthetic Pathway in Streptomyces sp. SHP 22-7 Led to the Discovery of Streptcytosine P and Cytosaminomycins F and G and Facilitated the Production of 12F-Plicacetin” (J Nat Prod, 2022).
In brackets after ≈: the same amount, converted by molar mass.

Experiments:
Format in all cases: functional
Staphylococcus aureus [1] = experiment: Antibacterial activity against Staphylococcus aureus ATCC 29213 assessed as bacterial growth inhibition incubated over night by two-fold serial dilution method
HeLa = experiment: Cytotoxicity against human HeLa cells assessed as reduction in cell viability after 24 hrs by resazurin dye based assay
Nakaseomyces glabratus = experiment: Antifungal activity against Candida glabrata Tu04 assessed as fungal growth inhibition incubated for 48 hrs by broth microdilution method
Acinetobacter baumannii = experiment: Antibacterial activity against Acinetobacter baumannii 09987 assessed as bacterial growth inhibition incubated over night by two-fold serial dilution method
Klebsiella pneumoniae = experiment: Antibacterial activity against Klebsiella pneumoniae ATCC 12657 assessed as bacterial growth inhibition incubated over night by two-fold serial dilution method
Bacillus subtilis = experiment: Antibacterial activity against Bacillus subtilis 168 assessed as bacterial growth inhibition incubated over night by two-fold serial dilution method
Klebsiella aerogenes = experiment: Antibacterial activity against Enterobacter aerogenes ATCC 13048 assessed as bacterial growth inhibition incubated over night by two-fold serial dilution method
Escherichia coli [2] = experiment: Antibacterial activity against Escherichia coli ATCC 25922 assessed as bacterial growth inhibition incubated over night by two-fold serial dilution method
Pseudomonas aeruginosa = experiment: Antibacterial activity against Pseudomonas aeruginosa ATCC 27853 assessed as bacterial growth inhibition incubated over night by two-fold serial dilution method
Candida albicans = experiment: Antifungal activity against Candida albicans Tu01 assessed as fungal growth inhibition incubated for 48 hrs by broth microdilution method
[3] = test system: Mycolicibacterium smegmatis; experiment: Antibacterial activity against Mycobacterium smegmatis mc2 155 assessed as bacterial growth inhibition incubated over night by two-fold serial dilution method
Staphylococcus aureus [4] = experiment: Antibacterial activity against Staphylococcus aureus NCTC 8325 assessed as bacterial growth inhibition incubated over night by two-fold serial dilution method
Enterococcus faecium = experiment: Antibacterial activity against Enterococcus faecium BM4147-1 assessed as bacterial growth inhibition incubated over night by two-fold serial dilution method
[5] = test system: Mycobacterium tuberculosis; experiment: Antitubercular activity against Mycobacterium tuberculosis H37Rv ATCC 25618 assessed as bacterial growth inhibition incubated for 7 days by resazurin microtiter assay; settings: H37Rv ATCC 25618, 168 h, time 7 day
Escherichia coli [6] = experiment: Antimicrobial activity against Escherichia coli MRE600 assessed as inhibition of translation using luciferin as substrate incubated for 2 hrs by chemiluminescence based cell free assay; settings: MRE600, 2 h

Row | SMILES | MIC (Staphylococcus aureus [1]) [µg/mL] | IC50 (HeLa) [µg/mL] | MIC (Nakaseomyces glabratus) [µg/mL] | MIC (Acinetobacter baumannii) [µg/mL] | MIC (Klebsiella pneumoniae) [µg/mL] | MIC (Bacillus subtilis) [µg/mL] | MIC (Klebsiella aerogenes) [µg/mL] | MIC (Escherichia coli [2]) [µg/mL] | MIC (Pseudomonas aeruginosa) [µg/mL] | MIC (Candida albicans) [µg/mL] | MIC [3] [µg/mL] | MIC (Staphylococcus aureus [4]) [µg/mL] | MIC (Enterococcus faecium) [µg/mL] | MIC95 [5] [µM] | IC50 (Escherichia coli [6]) [µg/mL]
1 | CC(C)CC(=O)Nc1ccn([C@H]2CC[C@H](O)[C@@H](C)O2)c(=O)n1 | > 32 | > 64 | > 32 | > 32 | > 32 | > 32 | > 32 | > 32 | > 32 | > 32 | > 32 | > 32 | > 32 | – | –
2 | CC(C)=CC(=O)Nc1ccn([C@H]2CC[C@H](O)[C@@H](C)O2)c(=O)n1 | > 32 | > 64 | > 32 | > 32 | > 32 | > 32 | > 32 | > 32 | > 32 | > 32 | > 32 | > 32 | > 32 | – | –
3 | C[C@H]1O[C@H](O[C@H]2CC[C@H](n3ccc(NC(=O)c4ccc(N)cc4)nc3=O)O[C@@H]2C)[C@H](O)[C@@H](O)[C@@H]1N(C)C | > 32 | 16 (≈ 30.9 µM) | > 32 | > 32 | > 32 | 32 (≈ 61.8 µM) | > 32 | > 32 | > 32 | > 32 | 2 (≈ 3.86 µM) | > 32 | > 32 | 16 (≈ 8.28 µg/mL) | 12 (≈ 23.2 µM)
4 | CC(=O)C(C)Nc1ccc(C(=O)Nc2ccn([C@H]3CC[C@H](O[C@H]4O[C@H](C)[C@@H](N(C)C)[C@H](O)[C@H]4O)[C@@H](C)O3)c(=O)n2)cc1 (stereo not given in full) | > 32 | 16 (≈ 27.2 µM) | > 32 | > 32 | > 32 | > 32 | > 32 | > 32 | > 32 | > 32 | 2 (≈ 3.4 µM) | > 32 | > 32 | 32 (≈ 18.8 µg/mL) | 13 (≈ 22.1 µM)
5 | CC(C)=CC(=O)Nc1ccn([C@H]2CC[C@H](O[C@H]3O[C@H](C)[C@@H](N(C)C)[C@H](O)[C@H]3O)[C@@H](C)O2)c(=O)n1 | > 32 | 2 (≈ 4.16 µM) | > 32 | > 32 | > 32 | 32 (≈ 66.6 µM) | > 32 | > 32 | > 32 | > 32 | 4 (≈ 8.32 µM) | > 32 | > 32 | 32 (≈ 15.4 µg/mL) | 1.6 (≈ 3.33 µM)
6 | CC[C@H](C)C(=O)Nc1ccn([C@H]2CC[C@H](O)[C@@H](C)O2)c(=O)n1 | > 32 | > 64 | > 32 | > 32 | > 32 | > 32 | > 32 | > 32 | > 32 | > 32 | > 32 | > 32 | > 32 | – | –
7 | C[C@H]1O[C@H](O[C@H]2CC[C@H](n3ccc(NC(=O)c4ccc(N)c(F)c4)nc3=O)O[C@@H]2C)[C@H](O)[C@@H](O)[C@@H]1N(C)C | > 32 | > 64 | > 32 | > 32 | > 32 | > 32 | > 32 | > 32 | > 32 | > 32 | – | > 32 | > 32 | – | –
8 | CS/C=C/C(=O)Nc1ccn([C@H]2CC[C@H](O[C@H]3O[C@H](C)[C@@H](N(C)C)[C@H](O)[C@H]3O)[C@@H](C)O2)c(=O)n1 | 16 (≈ 32.1 µM) | 1 (≈ 2.01 µM) | > 32 | > 32 | > 32 | 8 (≈ 16 µM) | > 32 | > 32 | > 32 | > 32 | 4 (≈ 8.02 µM) | 16 (≈ 32.1 µM) | > 32 | 8 (≈ 3.99 µg/mL) | 1 (≈ 2.01 µM)
9 | CC[C@H](C)CCC(=O)Nc1ccn([C@H]2CC[C@H](O[C@H]3O[C@H](C)[C@@H](N(C)C)[C@H](O)[C@H]3O)[C@@H](C)O2)c(=O)n1 | > 32 | > 64 | > 32 | > 32 | > 32 | > 32 | > 32 | > 32 | > 32 | > 32 | 16 (≈ 31.3 µM) | > 32 | > 32 | – | 9.5 (≈ 18.6 µM)
